Measured values taken from patent publication US8575158B2, “1-phenyl-substituted heterocyclyl derivatives and their use as prostaglandin D2 receptor modulators” (Actelion Pharmaceuticals Ltd., priority 2010, dated 2013).

Target: T1, hCRTH2 receptor (Homo sapiens, UniProt Q9Y5Y4)
T1 construct: expressed in transfected cells; host or cells: HEK293
T1 sequence (Q9Y5Y4 1-395): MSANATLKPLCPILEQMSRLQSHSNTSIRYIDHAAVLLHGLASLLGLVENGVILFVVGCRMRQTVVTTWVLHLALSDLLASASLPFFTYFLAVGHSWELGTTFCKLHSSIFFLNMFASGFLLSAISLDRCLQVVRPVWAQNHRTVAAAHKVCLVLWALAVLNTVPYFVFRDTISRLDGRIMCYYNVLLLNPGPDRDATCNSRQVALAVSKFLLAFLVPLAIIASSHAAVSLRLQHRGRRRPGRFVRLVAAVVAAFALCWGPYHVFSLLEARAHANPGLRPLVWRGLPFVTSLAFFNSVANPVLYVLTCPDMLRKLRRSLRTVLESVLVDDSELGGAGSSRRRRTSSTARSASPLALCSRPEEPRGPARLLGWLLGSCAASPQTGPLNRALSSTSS
Assay: Radioligand displacement assay (3H-PGD2) on hCRTH2 receptor membranes
Assay type: binding
Settings: antagonistic activity; 3H-PGD2 displacement on HEK293-hCRTH2 membrane fragments

Cc1cccc(OCCC(=O)N2CCc3ccccc3C2c2cc(Cl)ccc2OCC(=O)O)c1 (racemic) [Example 94, (±)-{4-Chloro-2-[2-(3-m-tolyloxy-propionyl)-1,2,3,4-tetrahydro-isoquinolin-1-yl]-phenoxy}-acetic acid]
IC50: 16.2 nM

O=C(O)COc1ccc(Cl)cc1C1c2ccccc2CCN1C(=O)CCOc1cccc(Cl)c1 (racemic) [Example 95, (±)-(4-Chloro-2-{2-[3-(3-chloro-phenoxy)-propionyl]-1,2,3,4-tetrahydro-isoquinolin-1-yl}-phenoxy)-acetic acid]
IC50: 27.5 nM

O=C(O)COc1ccc(Cl)cc1C1c2ccccc2CCN1C(=O)Cc1c[nH]c2ccc(Cl)cc12 (racemic) [Example 96, (±)-(4-Chloro-2-{2-[2-(5-chloro-1H-indol-3-yl)-acetyl]-1,2,3,4-tetrahydro-isoquinolin-1-yl}-phenoxy)-acetic acid]
IC50: 172 nM

Cc1ccc(CCCC(=O)N2CCc3ccccc3C2c2cc(Cl)ccc2OCC(=O)O)cc1 (racemic) [Example 97, (±)-{4-Chloro-2-[2-(4-p-tolyl-butyryl)-1,2,3,4-tetrahydro-isoquinolin-1-yl]-phenoxy}-acetic acid]
IC50: 9.7 nM

O=C(O)COc1ccc(Cl)cc1C1c2ccccc2CCN1C(=O)Cc1csc2ccc(Cl)cc12 (racemic) [Example 98, (±)-(4-Chloro-2-{2-[2-(5-chloro-benzo[b]thiophen-3-yl)-acetyl]-1,2,3,4-tetrahydro-isoquinolin-1-yl}-phenoxy)-acetic acid]
IC50: 124 nM

COc1ccc2[nH]c(CC(=O)N3CCc4ccccc4C3c3cc(Cl)ccc3OCC(=O)O)cc2c1 (racemic) [Example 99, (±)-(4-Chloro-2-{2-[2-(5-methoxy-1H-indol-2-yl)-acetyl]-1,2,3,4-tetrahydro-isoquinolin-1-yl}-phenoxy)-acetic acid]
IC50: 296 nM

Cc1ccc2onc(CC(=O)N3CCc4ccccc4C3c3cc(Cl)ccc3OCC(=O)O)c2c1 (racemic) [Example 100, (±)-(4-Chloro-2-{2-[2-(5-methyl-benzo[d]isoxazol-3-yl)-acetyl]-1,2,3,4-tetrahydro-isoquinolin-1-yl}-phenoxy)-acetic acid]
IC50: 205 nM

COc1ccc2onc(CC(=O)N3CCc4ccccc4C3c3cc(Cl)ccc3OCC(=O)O)c2c1 (racemic) [Example 101, (±)-(4-Chloro-2-{2-[2-(5-methoxy-benzo[d]isoxazol-3-yl)-acetyl]-1,2,3,4-tetrahydro-isoquinolin-1-yl}-phenoxy)-acetic acid]
IC50: 19.6 nM

O=C(O)COc1ccc(Cl)cc1C1c2ccccc2CCN1C(=O)CCOc1ccc(F)cc1 (racemic) [Example 102, (±)-(4-Chloro-2-{2-[3-(4-fluoro-phenoxy)-propionyl]-1,2,3,4-tetrahydro-isoquinolin-1-yl}-phenoxy)-acetic acid]
IC50: 7.53 nM

O=C(O)COc1ccc(Cl)cc1C1c2ccccc2CCN1C(=O)CCCc1ccc(F)cc1 (racemic) [Example 103, (±)-(4-Chloro-2-{2-[4-(4-fluoro-phenyl)-butyryl]-1,2,3,4-tetrahydro-isoquinolin-1-yl}-phenoxy)-acetic acid]
IC50: 11.2 nM

Cc1ccccc1CCC(=O)N1CCc2ccccc2C1c1cc(Cl)ccc1OCC(=O)O (racemic) [Example 104, (±)-{4-Chloro-2-[2-(3-o-tolyl-propionyl)-1,2,3,4-tetrahydro-isoquinolin-1-yl]-phenoxy}-acetic acid]
IC50: 28.6 nM

O=C(O)COc1ccc(Cl)cc1C1c2ccccc2CCN1C(=O)COCc1ccccc1 (racemic) [Example 105, (±)-{2-[2-(2-Benzyloxy-acetyl)-1,2,3,4-tetrahydro-isoquinolin-1-yl]-4-chloro-phenoxy}-acetic acid]
IC50: 9.95 nM

O=C(O)COc1ccc(Cl)cc1C1c2ccccc2CCN1C(=O)COCc1ccccc1Cl (racemic) [Example 106, (±)-(4-Chloro-2-{2-[2-(2-chloro-benzyloxy)-acetyl]-1,2,3,4-tetrahydro-isoquinolin-1-yl}-phenoxy)-acetic acid]
IC50: 4.06 nM

O=C(O)COc1ccc(Cl)cc1C1c2ccccc2CCN1C(=O)CCCc1ccccc1 (racemic) [Example 107, (±)-{4-Chloro-2-[2-(4-phenyl-butyryl)-1,2,3,4-tetrahydro-isoquinolin-1-yl]-phenoxy}-acetic acid]
IC50: 20.6 nM

O=C(O)COc1ccc(Cl)cc1C1c2ccccc2CCN1C(=O)CCCc1cccc(F)c1 (racemic) [Example 108, (±)-(4-Chloro-2-{2-[4-(3-fluoro-phenyl)-butyryl]-1,2,3,4-tetrahydro-isoquinolin-1-yl}-phenoxy)-acetic acid]
IC50: 35.9 nM

O=C(O)COc1ccc(Cl)cc1C1c2ccccc2CCN1C(=O)CCCc1cccc(Cl)c1Cl (racemic) [Example 109, (±)-(4-Chloro-2-{2-[4-(2,3-dichloro-phenyl)-butyryl]-1,2,3,4-tetrahydro-isoquinolin-1-yl}-phenoxy)-acetic acid]
IC50: 16.9 nM

Cc1cccc(CCCC(=O)N2CCc3ccccc3C2c2cc(Cl)ccc2OCC(=O)O)c1 (racemic) [Example 110, (±)-{4-Chloro-2-[2-(4-m-tolyl-butyryl)-1,2,3,4-tetrahydro-isoquinolin-1-yl]-phenoxy}-acetic acid]
IC50: 41.2 nM

Cc1ccccc1CCCC(=O)N1CCc2ccccc2C1c1cc(Cl)ccc1OCC(=O)O (racemic) [Example 111, (±)-{4-Chloro-2-[2-(4-o-tolyl-butyryl)-1,2,3,4-tetrahydro-isoquinolin-1-yl]-phenoxy}-acetic acid]
IC50: 45 nM

O=C(O)COc1ccc(Cl)cc1C1c2ccccc2CCN1C(=O)CCCc1cccc(Cl)c1 (racemic) [Example 112, (±)-(4-Chloro-2-{2-[4-(3-chloro-phenyl)-butyryl]-1,2,3,4-tetrahydro-isoquinolin-1-yl}-phenoxy)-acetic acid]
IC50: 23.4 nM

O=C(O)COc1ccc(Cl)cc1C1c2ccccc2CCN1C(=O)CCCc1ccccc1Cl (racemic) [Example 113, (±)-(4-Chloro-2-{2-[4-(2-chloro-phenyl)-butyryl]-1,2,3,4-tetrahydro-isoquinolin-1-yl}-phenoxy)-acetic acid]
IC50: 25.5 nM

COc1cccc(CCCC(=O)N2CCc3ccccc3C2c2cc(Cl)ccc2OCC(=O)O)c1 (racemic) [Example 114, (±)-(4-Chloro-2-{2-[4-(3-methoxy-phenyl)-butyryl]-1,2,3,4-tetrahydro-isoquinolin-1-yl}-phenoxy)-acetic acid]
IC50: 34.5 nM

O=C(O)COc1ccc(Cl)cc1C1c2ccccc2CCN1C(=O)CCCc1ccccc1F (racemic) [Example 115, (±)-(4-Chloro-2-{2-[4-(2-fluoro-phenyl)-butyryl]-1,2,3,4-tetrahydro-isoquinolin-1-yl}-phenoxy)-acetic acid]
IC50: 27 nM

O=C(O)COc1ccc(Cl)cc1C1c2ccccc2CCN1C(=O)[C@@H]1C[C@H]1c1ccccc1 (mixture of isomers) [Example 116, (±)-{4-Chloro-2-[2-(trans-2-phenyl-cyclopropanecarbonyl)-1,2,3,4-tetrahydro-isoquinolin-1-yl]-phenoxy}-acetic acid]
IC50: 5.42 nM

Cc1ccccc1CCC(=O)N1CCc2c(F)cccc2C1c1cc(Cl)ccc1OCC(=O)O (racemic) [Example 118, (±)-{4-Chloro-2-[5-fluoro-2-(3-o-tolyl-propionyl)-1,2,3,4-tetrahydro-isoquinolin-1-yl]-phenoxy}-acetic acid]
IC50: 95.4 nM

O=C(O)COc1ccc(Cl)cc1C1c2cccc(F)c2CCN1C(=O)COCc1ccccc1 (racemic) [Example 119, (±)-{2-[2-(2-Benzyloxy-acetyl)-5-fluoro-1,2,3,4-tetrahydro-isoquinolin-1-yl]-4-chloro-phenoxy}-acetic acid]
IC50: 30.9 nM

O=C(O)COc1ccc(Cl)cc1C1c2cccc(F)c2CCN1C(=O)COCc1ccccc1Cl (racemic) [Example 120, (±)-(4-Chloro-2-{2-[2-(2-chloro-benzyloxy)-acetyl]-5-fluoro-1,2,3,4-tetrahydro-isoquinolin-1-yl}-phenoxy)-acetic acid]
IC50: 33.3 nM

O=C(O)COc1ccc(Cl)cc1C1c2cccc(F)c2CCN1C(=O)CCCc1ccccc1 (racemic) [Example 121, (±)-{4-Chloro-2-[5-fluoro-2-(4-phenyl-butyryl)-1,2,3,4-tetrahydro-isoquinolin-1-yl]-phenoxy}-acetic acid]
IC50: 52.3 nM

O=C(O)COc1ccc(Cl)cc1C1c2cccc(F)c2CCN1C(=O)C#Cc1ccccc1 (racemic) [Example 122, (±)-{4-Chloro-2-[5-fluoro-2-(3-phenyl-propynoyl)-1,2,3,4-tetrahydro-isoquinolin-1-yl]-phenoxy}-acetic acid]
IC50: 196 nM

O=C(O)COc1ccc(F)cc1C1c2ccccc2CCN1C(=O)CCc1ccccc1 (racemic) [Example 123, (±)-{4-Fluoro-2-[2-(3-phenyl-propionyl)-1,2,3,4-tetrahydro-isoquinolin-1-yl]-phenoxy}-acetic acid]
IC50: 152 nM

O=C(O)COc1ccc(F)cc1C1c2ccccc2CCN1C(=O)Cc1ccccc1 (racemic) [Example 124, (±)-[4-Fluoro-2-(2-phenylacetyl-1,2,3,4-tetrahydro-isoquinolin-1-yl)-phenoxy]-acetic acid]
IC50: 417 nM

O=C(O)COc1ccc(F)cc1C1c2ccccc2CCN1C(=O)COc1ccccc1 (racemic) [Example 125, (±)-{4-Fluoro-2-[2-(2-phenoxy-acetyl)-1,2,3,4-tetrahydro-isoquinolin-1-yl]-phenoxy}-acetic acid]
IC50: 175 nM
